Columns and labels:
BALB/c mice = experiment: Maximum Tolerated Dose (MTD) / lethal dose determination in Balb/C mouse model; assay type: in vivo
Description: The MTD of Bi(S2CNEt2)3 was determined in the following manner. Male and female BALB/c mice obtained from the Laboratory Animal Centre, (National University of Singapore), were used for the study. The mice used were about 4-5 weeks old with a mean body weight of 20±2 g. The 5 mice per cage were kept at room temperature and under standard light conditions. They received standard mouse chow and water. […] The mice in the control group were administered with DMSO only. […] An initial concentration of 20 mg Bi/kg was used for a small sampling population of two mice, one of each gender. If both mice died, the complex concentration was decreased, and the experiment was repeated for another two mice. If one of the mice died but the other survived, the experiment was repeated for a larger sampling population of ten mice, five of each gender, for the same complex concentration. The observation period lasted 14 days. The objective of the experiment was to plot a graph of percent of live mice (number of survivors/ten×100%) against compound dosage (in mg Bi/kg). This procedure enabled the determination of the Maximum Tolerated Dose (at MTD 90% survival of mice).

[1] = system: OVCAR human ovarian cancer; experiment: in vivo anti-tumour activity, OVCAR xenograft in nude Balb/C mice; design: species or system mouse; conditions: nude Balb/C mice with OVCAR, 0.14 mg Bi/kg
Description: Female BALB/C-nude mice, obtained from the Animal Resources Centre in Queensland, Australia were used for this experiment. […] Throughout this experiment, the mice were housed in filtered air laminar-flow cabinets and were manipulated following standard aseptic procedures.
Human ovarian cancer (OVCAR) cells were provided by Dr Ho (Department of Pharmacy, National University of Singapore). OVCAR cells were grown in RPMI-1640 medium with 10% foetal bovine serum and 5 mM L-glutamine.
A suspension of OVCAR cells (10^7 cells) were injected subcutaneously (s.c.) in the flank of each animal (0.1 ml per mice). When the volume of the tumour reached approximately 50-100 mm^3, the mice were randomly divided into 2 groups, the test group and the control group, comprising 6 mice in each group.
The compound was given subcutaneously to mice in amounts of 0.1 ml/20 g three times every two days in the first week. The dose applied was at the level of the MTD, i.e. 0.14 mg Bi/kg mouse. […]
In xenografts transplanted subcutaneously, tumour growth was monitored and the volume of the tumour was determined by measuring its diameter with a vernier calliper every 2-4 days. The Relative Tumour Volume (RTV=tumour volume on day×/tumour volume on day 1) was calculated using the formula width^2×length×0.52.

[2] = i.p. in DMSO, 14 days observation

Q: How did the MTD (BALB/c mice; MTD = 90% survival of mice) turn out when “bismuth (III) tris(N,N-diethyldithiocarbamate) [Bi(S2CNEt2)3]” was run?
A: 0.14 mg Bi/kg mouse

Q: What about the LD10 (BALB/c mice; [2]) of the same substance?
A: 0.14 mg/kg

Q: And the LD50 (BALB/c mice; [2])?
A: 3.57 mg/kg

Q: What about the LD90 (BALB/c mice; [2]) of the same substance?
A: 7 mg/kg

Q: What about the anti-tumour activity [1] of the same substance?
A: significant anti-tumour activity
